Measurements from patent US9062043B2, “Fused tricyclic compounds as serine-threonine protein kinase and PARP modulators” (SENHWA BIOSCIENCES, INC., priority 2006, dated 2015).

What was measured:
[1] = system: PC-3 human prostatic cancer cells; assay: Cell proliferation assay, Alamar Blue, PC-3; format: cell-based; settings: Table 16, read-out: IC50 PC3
Method: (§1) A representative cell-proliferation assay protocol using Alamar Blue dye (stored at 4° C., use 20 ul per well) is described hereafter.
(§2) c. Plate 4,000-5,000 cells per well in 100 μl of medium and seed into a 96-well plate according to the following plate layout. Add cell culture medium only to wells B10 to B12. Wells B1 to B9 have cells but no compound added.
(§3) d. Add 100 μl of 2× drug dilution to each well in a concentration shown in the plate layout above. At the same time, add 100 μl of media into the control wells (wells B10 to B12). Total volume is 200 μl/well.
(§4) e. Incubate four (4) days at 37° C., 5% CO2 in a humidified incubator.
(§5) f. Add 20 μl Alamar Blue reagent to each well.
(§6) g. Incubate for four (4) hours at 37° C., 5% CO2 in a humidified incubator.
(§7) h. Record fluorescence at an excitation wavelength of 544 nm and emission wavelength of 590 nm using a microplate reader.
(§8) In the assays, cells are cultured with a test compound for approximately four days, the dye then is added to the cells and fluorescence of […] dye is detected after approximately four hours. Different types of cells can be utilized in the assays (e.g., HCT-116 human colorectal carcinoma cells, PC-3 human prostatic cancer cells and MiaPaca human pancreatic carcinoma cells). Anti-proliferative effects of representative compounds are provided hereafter.

[2] = system: HCT-116 human colorectal carcinoma cells; assay: Cell proliferation assay, Alamar Blue, HCT-116; format: cell-based; settings: HCT-116, Table 16, second HCT-116 column;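 further: cells exposed to compound for about 4 days, then Alamar Blue added and fluorescence read after about 4 h, medium-only wells as control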
[3] = system: Jurkat; assay: Cell proliferation assay, Alamar Blue, Jurkat; format: cell-based; settings: Homo sapiens, Table 16;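 further: cells exposed to compound for about 4 days at 37 °C, then Alamar Blue added and fluorescence read after about 4 h, controls given medium without drug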
[4] = system: H1299; assay: Cell proliferation assay, Alamar Blue, H1299; format: cell-based; settings: Homo sapiens, NCI-H1299; Table 16
Method: as §2, §3, §4, §5, §6, §7, §8

[5] = system: Hs578T; assay: Cell proliferation assay, Alamar Blue, Hs578T; format: cell-based; settings: Homo sapiens, Hs-578T; Table 16
[6] = system: MiaPaca human pancreatic carcinoma cells; assay: Cell proliferation assay, Alamar Blue, MiaPaca; format: cell-based; settings: MIA PaCa-2, Table 16
Method: as §1, §2, §3, §4, §5, §6, §7, §8

[7] = system: A549; assay: Cell proliferation assay, Alamar Blue, A549; format: cell-based; settings: Homo sapiens, Table 16
Method: as §2, §3, §4, §5, §6, §7, §8

[8] = system: HT29; assay: Cell proliferation assay, Alamar Blue, HT29; format: cell-based; settings: Homo sapiens, HT-29; Table 16
Method: as §2, §3, §4, §5, §6, §7, §8

[9] = system: MiaPaca xenografts; assay: Tumor suppression in MiaPaca xenograft mice; format: in vivo
[10] = system: MCF-7 xenografts; assay: Tumor suppression in MCF-7 xenograft animals; format: in vivo, mice; settings: oral 100 mg/kg
Method: (§9) Animals were handled under laminar-flow hoods.
(§10) Gemar™ administered at a dose of 80 mg/kg IP Q3D was used as a positive control.

[11] = system: caspase-3; assay: Caspase-3 staining in tumors as biomarker; format: in vivo, mice; settings: 60 mg/kg IV
Method: Caspase staining also was assessed as a biomarker for compound A1 treatment of tumors.

[12] = system: PC-3 xenografts; assay: Tumor suppression in PC-3 xenograft animals; format: in vivo, mice; settings: oral 150 mg/kg
Method: as §9, §10

[13] = Pharmacokinetics in ICR mice after IV and PO dose; format: in vivo
[14] = system: BxPC3; assay: Cell proliferation assay, Alamar Blue, BxPC3; format: cell-based; settings: Homo sapiens, BXPC-3; Table 16
Method: as §2, §3, §4, §5, §6, §7, §8

[15] = system: SK-OV-3; assay: Cell proliferation assay, Alamar Blue, SK-OV-3; format: cell-based; settings: Homo sapiens; SK-OV-3 cells, anti-proliferative
Method: as §1, §2, §3, §4, §5, §6, §7, §8

[16] = system: A375; assay: Cell proliferation assay, Alamar Blue, A375; format: cell-based; settings: Homo sapiens, A-375; A375 cells, anti-proliferative
Method: as §1, §2, §3, §4, §5, §6, §7, §8

[17] = system: MDAMB231; assay: Cell proliferation assay, Alamar Blue, MDAMB231; format: cell-based; settings: Homo sapiens, MDA-MB-231; MDAMB231 cells, anti-proliferative
Method: as §1, §2, §3, §4, §5, §6, §7, §8

[18] = system: H460; assay: Cell proliferation assay, Alamar Blue, H460; format: cell-based; settings: Homo sapiens, NCI-H460; H460 cells, anti-proliferative
Method: as §1, §2, §3, §4, §5, §6, §7, §8

[19] = system: PanC1; assay: Cell proliferation assay, Alamar Blue, PanC1; format: cell-based; settings: Homo sapiens, PANC-1; PanC1 cells, anti-proliferative; read-out: IC50 (uM) PanC1
Method: as §1, §2, §3, §4, §5, §6, §7, §8

[20] = system: Raji; assay: Cell proliferation assay, Alamar Blue, Raji; format: cell-based; settings: Homo sapiens; Raji cells, anti-proliferative
Method: as §1, §2, §3, §4, §5, §6, §7, §8

[21] = system: LNCaP; assay: Cell proliferation assay, Alamar Blue, LNCaP; format: cell-based; settings: Homo sapiens; LNCaP cells, anti-proliferative
Method: as §1, §2, §3, §4, §5, §6, §7, §8

[22] = system: COLO 205; assay: Cell proliferation assay, Alamar Blue, COLO 205; format: cell-based; settings: Homo sapiens; COLO 205 cells, anti-proliferative
Method: as §1, §2, §3, §4, §5, §6, §7, §8

[23] = system: HL-60; assay: Cell proliferation assay, Alamar Blue, HL-60; format: cell-based; settings: Homo sapiens; HL-60 cells, anti-proliferative
Method: as §1, §2, §3, §4, §5, §6, §7, §8

[24] = system: MCF-7; assay: Cell proliferation assay, Alamar Blue, MCF-7; format: cell-based; settings: Homo sapiens, MCF7; MCF-7 cells, anti-proliferative
Method: as §1, §2, §3, §4, §5, §6, §7, §8

| IC50 [1] [µM] | IC50 [2] [µM] | IC50 [3] [µM] | IC50 [4] [µM] | IC50 [6] [µM] | IC50 [7] [µM] | IC50 [8] [µM] | Structure (SMILES) | IC50 [5] [µM] | further results |
| --- | --- | --- | --- | --- | --- | --- | --- | --- | --- |
| > 50 | > 10 | 7.43 | 38.8 | > 10 | > 50 | > 50 | O=C(O)c1ccc2c(c1)nc(Nc1ccccc1)c1ncsc12 | > 50 | – |
| > 50 | > 10 | – | 18.5 | > 10 | > 50 | > 50 | COc1cccc(Nc2nc3cc(C(=O)O)ccc3c3scnc23)c1 | > 50 | – |
| > 50 | 15 | 15.2 | 41.8 | > 10 | > 50 | > 50 | O=C(O)c1ccc2c(c1)nc(Nc1ccc(F)c(Cl)c1)c1ncsc12 | 28.2 | – |
| > 50 | 15 | 40.2 | 21.6 | > 10 | > 50 | > 50 | O=C(O)c1ccc2c(c1)nc(Nc1cccc(F)c1)c1ncsc12 | > 50 | – |
| 6.11 | > 10 | 5.86 | 8.14 | 6.36 | 7.45 | 2 | O=C(O)c1ccc2c(c1)nc(Nc1cc(F)cc(F)c1)c1ccsc12 | 7.31 | – |
| 2.66 | > 10 | 5.93 | 8.78 | 7.28 | 6.23 | 1.89 | O=C(O)c1ccc2c(c1)nc(Nc1cccc(F)c1)c1ccsc12 | 8.67 | – |
| 16.7 | – | – | 14.3 | 9.82 | 11.7 | 5.36 | O=C(O)c1ccc2c(c1)nc(Nc1cccc(Cl)c1)c1ccsc12 | 9.7 | – |
| > 50 | > 10 | – | 17.5 | > 10 | 31.1 | > 50 | O=C(O)c1ccc2c(c1)nc(Nc1cc(Cl)ccc1F)c1ccsc12 | – | – |
| 26.7 | > 10 | 8.69 | 13.8 | > 10 | 6.94 | 3.56 | CNC(=O)c1cccc(Nc2nc3cc(C(=O)O)ccc3c3sccc23)c1 | 9.07 | – |
| 44.9 | > 10 | – | 9.9 | > 10 | 7.6 | 4.6 | NS(=O)(=O)c1cccc(Nc2nc3cc(C(=O)O)ccc3c3sccc23)c1 | 11 | – |
| > 50 | – | – | 19.1 | > 10 | 16 | 16.6 | N#Cc1cccc(Nc2nc3cc(C(=O)O)ccc3c3sccc23)c1 | 12.3 | – |
| 5.31 | > 10 | 6.97 | 12.7 | 3.18 | 4.49 | 3.22 | O=C(NC1CC1)c1cccc(Nc2nc3cc(-c4nnn[nH]4)ccc3c3sccc23)c1 | 7.79 | – |
| – | – | – | – | – | – | – | O=C(O)c1ccc2c(c1)nc(Nc1cccc(Cl)c1)c1ccncc12 [compound A1] | – | Tumor growth inhibition ([9]; MiaPaca xenograft, oral 100 mg/kg QDx8 then 200 mg/kg QDx5, relative to untreated control): significantly inhibited tumor growth; Tumor growth inhibition [10]: significantly inhibited tumor growth; Caspase-3 cell staining levels vs untreated control cells [11]: four-fold greater; Tumor growth inhibition [12]: significantly inhibited tumor growth; CLs ([13]; IV 5 mg/kg): 25 mL/min/kg; Cp0-exp ([13]; IV 5 mg/kg): 13201 ng/mL; Kel ([13]; IV 5 mg/kg): 0.1586 h⁻¹; F(0-8 h) ([13]; PO 25 mg/kg): 10.9%; F(0-inf h) ([13]; PO 25 mg/kg): 18.7%; Kel ([13]; PO 25 mg/kg): 0.1076 h⁻¹; AUC(0-inf) ([13]; mouse, plasma, IV 5 mg/kg): 3360 ng·h/mL; AUC(0-t) ([13]; mouse, plasma, IV 5 mg/kg): 3340 ng·h/mL; Vd ([13]; mouse, plasma, IV 5 mg/kg): 9.4 L/kg; AUC(0-inf) ([13]; mouse, plasma, PO 25 mg/kg): 3150 ng·h/mL; AUC(0-t) ([13]; mouse, plasma, PO 25 mg/kg): 2920 ng·h/mL; Cmax ([13]; mouse, plasma, PO 25 mg/kg): 343 ng/mL; Tmax ([13]; mouse, plasma, PO 25 mg/kg): 15 min |
| – | – | – | – | – | – | – | O=C(O)c1ccc2c(c1)nc(Nc1cccc(C(F)(F)F)c1)c1nc(NC3CC3)ncc12 [compound A3] | – | Tumor progression inhibition ([9]; MiaPaca xenografts, IV administration): significantly inhibited tumor progression |
| 17.8 | – | – | 16.9 | > 10 | 27.7 | 23.1 | C#Cc1cccc(Nc2nc3cc(C(=O)O)ccc3c3sccc23)c1 [drawing 938] | 9.96 | – |
| 32.2 | 8.76 | 4.31 | 0.97 | 14.6 | 13.2 | 13 | O=C(O)c1ccc2c(c1)nc(Nc1cc(Cl)cc(Cl)c1)c1ccsc12 [drawing 984] | 7.67 | IC50 [14]: 2.1 µM |
| – | – | – | – | – | – | – | O=C(O)c1ccc2c(c1)nc(Nc1cc(Cl)cc(Cl)c1)c1ccsc12 [drawing 991] | – | IC50 [15]: 11.7 µM; IC50 [16]: 19.9 µM; IC50 [17]: 3.89 µM; IC50 [18]: 12.3 µM; IC50 [19]: 20.3 µM; IC50 [20]: 17.7 µM; IC50 [21]: 6.23 µM; IC50 [22]: 1.01 µM; IC50 [23]: 1.94 µM; IC50 [24]: 13.7 µM |
